Data on 3 substances can be found in patent US7056891B2 (priority 2000, dated 2006).

Like-named read-outs stand apart in the source and are kept apart here.

Test [1] deals with TSST-1. It is filed as cell-based, S. aureus MN8.
The test system of test [2] is S. aureus MN8. It is filed as cell-based, Staphylococcus aureus. The settings on record: 24 hours at 35° C.

With Laureth-4, in test [1] (24 hours at 35° C.), the “TSST-1” value came out at 531.8 ng/mL. For the same substance, the “Final [S. aureus]” value in test [2] is 4.57 x10^9 CFU/ml.
For the substance PPG-5 Laureth-5, the “TSST-1” value in test [1] was 609.2 ng/mL. Further, the “Final [S. aureus]” value in test [2] is given as 3.82 x10^9 CFU/ml.
Turning to Steareth-2, the “TSST-1” value in test [1] (24 hours at 35° C.) came out at 680.7 ng/mL. Besides, the “Final [S. aureus]” value in test [2] is 5.76 x10^9 CFU/ml.
